Eight compounds from US7482378B2, “Physiological cooling compositions” (Millenium Specialty Chemicals, Inc., priority 2004, dated 2009) can be followed below.

The nature of data set [1]: Relative cooling strength of individual coolants, organoleptic sequential dilution method versus standard 10 ppm WS-3 solution in water. In kind it is in vivo. To be noted: relative to 10 ppm WS-3 in water assigned 10.0; values accepted in the art and confirmed by expert evaluation. From the text: The aqueous solutions of products for organoleptic tests were obtained by dissolving appropriate amounts of the products in propylene glycol PG and adding the PG solution to an appropriate amount of water.
A. Cooling strength values for individual coolants. Cooling strength values used in this invention for individual coolants were those generally accepted in the art and also additionally confirmed using expert evaluations conducted by Millennium Specialty Chemicals personnel on the basis of a sequential dilution method, i.e., a controlled dilution of samples to the concentration where their strength is about equal to the standard solution of WS-3. For purposes of Examples 55-60, a 10 ppm solution of WS-3 in water was used as the standard solution and was assigned a standardized cooling strength value of 10.0. The corresponding relative cooling strengths for the individual cooling agents were then assigned based upon an organoleptic determination of the approximate concentration of cooling agent that was required to provide about the same cooling strength as the standardized 10 ppm solution of WS-3.

Turning to `CC(C)[C@@H]1CC[C@@H](C)C[C@H]1OC(=O)CCCC(=O)O` [MMG, monomenthyl glutarate], the Relative cooling strength entry in data set [1] is “about 3.5”.
With `CC1CCC(C(C)C)C(OC(=O)C(C)O)C1` (stereo not drawn) [Menthyl Lactate, l-Menthyl ester of lactic acid], the Relative cooling strength result in data set [1] is “about 2.9”.
`CNC(=O)C1C(C)CCCC1(C)C` (stereo not shown) [N,2,2,6-Tetramethylcyclohexane-1-carboxamide] registered a melting point of 146 to 148 °C. In addition, in data set [1], the Relative cooling strength entry was “about 1.0”.
For `CCNC(=O)[C@@H]1C[C@H](C)CC[C@H]1C(C)C` [WS-3, N-ethyl-3-p-menthane carboxamide], the Relative cooling strength in data set [1] turned out to be 10.0.
On the same count and under the same terms, next, `CCOC(=O)CNC(=O)C1CC(C)CCC1C(C)C` (stereo not shown) [WS-5, N-(ethoxycarbonylmethyl)-3-p-menthane carboxamide]: “about 16.7”.
Take `CC(C)[C@@H]1CC[C@@H](C)C[C@H]1C(=O)NC(C)(C)C` [WS-14, N-tert-butyl-3-p-menthane carboxamide]: the melting point fell in the range of 147 to 150 °C. The Relative cooling strength entry in data set [1] is on record as “about 5.0”.
In the case of `CNC(=O)C(C)(C(C)C)C(C)C` [WS-23, N,2,3-trimethyl-2-isopropyl butanamide], the Relative cooling strength entry in data set [1] is recorded as “about 5.0”.
“Glyceryl ether of p-menthane-3-carboxylic acid [WS-30]”: the Relative cooling strength result in data set [1] is given as “about 1.5”.

As a reminder, the melting point is the temperature, or range, at which the solid turns liquid.
